{"source": "patent US20230372356A1", "about": "“CLOMIPRAMINE FOR THE TREATMENT OF ALZHEIMER'S DISEASE” (National Institute of Immunology, priority 2022, published 2023)", "key": {"[1]": {"test_system": "Aβ42-treated cortical neurons", "test": "Western blot of lysates of Aβ42-treated rat cortical neurons treated with clomipramine", "type": "cell-based", "settings": "for cell cycle related neuronal apoptosis by immunoblotting (PCNA, cleaved caspase-3): 48 h (FIGS. 3D-3F)", "text": "The effect of clomipramine on cell cycle related neuronal apoptosis (CRNA) was investigated in Aβ42-treated cortical neurons (Aβ42 peptide induces neurodegeneration in AD patients). The TAp73 levels were restored upon clomipramine treatment (FIG. 1A). […] FIGS. 1B, 1C, and 1D show the quantification of TAp73, PCNA, and cleaved caspase-3 levels of the Western blot of FIG. 1A.\nTo determine an effective concentration of clomipramine, Aβ42 treated rat cortical neurons were subjected to different concentrations (10 nM to 100 nM) of clomipramine for 48 h. Lysates were prepared and immunoblotting was performed.\nAfter 48 h, one set of cells were lysed, lysates were prepared and the lysates were subjected to immunoblotting."}, "[2]": {"test_system": "AD transgenic mouse model (Tg) cortical neurons", "test": "Western blot of cortical neuron lysate from AD transgenic mouse model (Tg) treated with clomipramine", "type": "cell-based", "settings": "Western blot (FIG. 2A)", "text": "The effect of clomipramine on cell cycle related neuronal apoptosis (CRNA) was also explored in AD transgenic mouse model (Tg) cortical neurons (in this mouse model, there is an increased production of Aβ42 which induces neurodegeneration similar to AD patients)."}, "TAp73": {"test_system": "TAp73", "test": "Immunoprecipitation of TAp73 and ubiquitination blot in presence of proteasome inhibitor MG132", "type": "cell-based, rat", "settings": "TAp73 immunoprecipitated in presence of MG132 (FIG. 2B)"}, "[3]": {"test_system": "Aβ42 treated cortical neurons", "test": "BrdU incorporation / TUNEL labelling of Aβ42-treated cortical neurons", "type": "cell-based, rat", "protocol": "Subsequently, BrdU incorporation and TUNEL labelling was performed to detect DNA replication and apoptosis, respectively. […] These findings indicate that clomipramine inhibits CRNA in AD neurons by preventing TAp73 degradation.\nTo another set of cells, BrdU was added after 48 h to label the neurons undergoing the replication (cell cycle re-entry). After that TUNEL assay was performed to label the cells undergoing apoptosis (FIG. 3G). The number of double positive cells were scored and plotted in the graph (FIG. 3H)."}, "[4]": {"test_system": "APP/PS1 transgenic (TgAD) mouse model for AD", "test": "Morris water maze test in TgAD mice", "type": "in vivo", "settings": "25 mg/kg I.P. for 45 days", "protocol": "(§1) Next, the effect of clomipramine was tested in an in vivo mouse model of AD. For this, Amyloid Precursor Protein (APP)/Presenillin 1 (PS1) transgenic (TgAD) mouse model for AD (strain name B6C3-Tg APPswe, PSEN1dE9 85Dboa; stock number 004462) was used. Wild type and transgenic (TgAD) mice were genotyped using genomic DNA isolated from mouse tail and PCR primers according to the Jackson laboratory protocol. Clomipramine hydrochloride, obtained from Sigma (C-7291), was dissolved in ultrapure MQ just before the injection and 100 μl of this solution was injected intraperitonially (I.P.injections) to each mouse of 23-25 g in weight (25 mg/kg body weight) for 45 days. Various behaviour tests (Morris water maze, Y-maze and Radial arm maze) were performed on clomipramine/saline injected mice.\nFor Morris water maze test, animals were subjected to three trials per session and one session a day, for five days. Each trial was for 60 s in which mice had to reach the hidden platform in the water, and the average time per session was recorded as escape latency. After the escape training, the platform was removed for the probe trial test. It tested the retention of spatial memory at 24 h after training (Vorhees and Williams 2006, Nunez 2008). The number of times a mouse crossed the probe, the time spent in the target quadrant, and swim speed were recorded using ANY-maze software (Stoelting Co., USA).\nFor in vivo studies, ˜6 months old WT/TgAD mice were intraperitonially injected with 25 mg/kg body weight of clomipramine for 45 days (FIG. 4A) and subjected to various behavior tests. […] After five days of training, probe trial was performed and observed that WT mice spent […] time searching for the platform in the area of previous location (target quadrant) than the TgAD reflected by FIG. 5B. […] These observations indicate improved spatial learning in TgAD mice upon clomipramine treatment."}, "[5]": {"test_system": "APP/PS1 transgenic (TgAD) mouse model for AD", "test": "Y-maze test in TgAD mice", "type": "in vivo", "protocol": "as §1\nFor Y-Maze test, animals were habituated in the Y-shaped maze for 3 min with one of the arms blocked then their spontaneous alternations were recorded with all arms open for 5 min (Miedel, Patton et al. 2017). The number of alternations was recorded manually and percent spontaneous alternations were calculated as mentioned below: […]\nY-maze test is an initial test of memory function. […] The memory function was tested when the animal was returned to the maze with all arms open and the tendency to spend time in the new or familiar arms was monitored."}, "[6]": {"test_system": "APP/PS1 transgenic (TgAD) mouse model for AD", "test": "Radial arm (8-arm) maze test in TgAD mice", "type": "in vivo", "protocol": "as §1, with “Various behaviour tests (Morris water maze, Y-maze and Radial arm maze) were performed on clomipramine/saline injected mice.” left out\nFor radial arm (8-arm) maze test, mice were given restricted amount of food until their bodyweight reduced to 85% of the initial weight for two days prior to habituation in the maze. […] On the test day, all arms were opened and same five arms were baited as in trial sessions and their series of entries were recorded manually (Miyakawa, Yamada et al. 2001), from which the percentage of working and reference memory errors were calculated. The mouse entering an arm containing food where it had previously entered, was counted as working memory error (short term memory) and if the mouse entered in an arm without bait, was counted as reference memory error (long term memory for position of the baited arms). […]"}, "[7]": {"test": "Tolerability of chronic clomipramine treatment in WT/TgAD mice", "type": "in vivo, mouse", "protocol": "as §1\nRadial arm maze test was also performed to assess the long term as well as short term memory of mice (Penley, Gaudet et al. 2013, Fredriksson, Sreedharan et al. 2019). For this purpose, the 24 h food deprived mice were placed on the central platform of 8-arm maze and allowed to explore the maze for food (bait) placed at the end of each arm as depicted in FIG. 8A. Each training/testing session was 10 min long. […] TgAD mice group committed more reference and working memory errors than WT."}, "TgAD cortex": {"test_system": "TgAD cortex", "test": "Western blot of cortex region of brain of clomipramine-treated TgAD mice", "type": "in vivo, mouse", "protocol": "The animals used in the above-mentioned behavioral tests were euthanized and cortex region of brain was dissected out for biochemical analysis. The levels of Itch, TAp73, PCNA and cleaved caspase-3 were determined with Western blotting (FIG. 9A). FIGS. 9B-9F show the quantification of the levels of Itch, TAp73, PCNA and cleaved caspase-3 of the Western blot of FIG. 9A. After analysis of six animals from each group, it was observed that TAp73 protein levels, which were reduced in TgAD cortex, were much higher in clomipramine treated TgAD brains. […] Importantly, CRNA which is exacerbated in TgAD cortex was reversed in clomipramine-treated mice as indicated by decrease in PCNA and cleaved caspase 3 (FIG. 9A)."}, "[8]": {"settings": "4 groups of mice treated with clomipramine and saline, 25 mg/kg I.P. 45 days"}, "[9]": {"settings": "TgAD mice, 25 mg/kg I.P. 45 days (FIG. 9A)"}}}
{"molecule": "CN(C)CCCN1c2ccccc2CCc2ccc(Cl)cc21", "note": "[clomipramine]", "values": [{"measurement": "cell cycle related neuronal apoptosis by immunoblotting (PCNA, cleaved caspase-3)", "setting": "[1]; 75 nM clomipramine", "value": "effective in reducing cell cycle related neuronalapoptosis"}, {"measurement": "TAp73 levels", "setting": "[1]; 75 nM clomipramine, 48 h, tested 10 nM to 100 nM (FIG. 3C)", "value": "restoration in TAp73 levels was observed"}, {"measurement": "cell cycle related neuronal apoptosis by immunoblotting (PCNA, cleaved caspase-3)", "setting": "[1]; 100 nM clomipramine", "value": "more apoptosis was observed"}, {"measurement": "TAp73 levels", "setting": "[1]; 100 nM clomipramine, 48 h, tested 10 nM to 100 nM (FIG. 3C)", "value": "restoration in TAp73 levels was observed"}, {"measurement": "TAp73 levels", "setting": "[1]; Aβ42-treated cortical neurons, Western blot (FIG. 1A, 1B)", "value": "restored"}, {"measurement": "PCNA (cell cycle re-entry)", "setting": "[1]; Aβ42-treated cortical neurons, Western blot (FIG. 1A, 1C)", "value": "significant decrease"}, {"measurement": "cleaved caspase 3 (apoptosis)", "setting": "[1]; Aβ42-treated cortical neurons, Western blot (FIG. 1A, 1D)", "value": "significant decrease"}, {"measurement": "PCNA (cell cycle re-entry)", "setting": "[2]", "value": "significant decrease"}, {"measurement": "TAp73 levels", "setting": "[2]", "value": "restored"}, {"measurement": "cleaved caspase 3 (apoptosis)", "setting": "[2]", "value": "significant decrease"}, {"measurement": "ubiquitination of TAp73", "setting": "TAp73", "value": "less ubiquitination of TAp73"}, {"measurement": "BrdU/TUNEL double positive cells (CRNA)", "setting": "[3]; 75 nM compared with 100 nM clomipramine, 48 h (FIGS. 3G, 3H)", "value": "more potent in preventing CRNA"}, {"measurement": "BrdU+/TUNEL+ cells (CRNA)", "setting": "[3]; Aβ42 treated cortical neurons (FIGS. 3A, 3B)", "value": "significant reduction"}, {"measurement": "Morris water maze: time to reach the hidden platform (escape latency)", "setting": "[4]; five days of training (FIG. 4B)", "value": "marked improvement"}, {"measurement": "Morris water maze: escape latency on the last day of training", "setting": "[4]; last day (FIGS. 4B, 4C, 5A)", "value": "almost similar to the WT mice"}, {"measurement": "Morris water maze probe trial: crossing of target quadrant area", "setting": "[4]; platform removed (FIG. 5B)", "value": "more frequently, almost similar to WT mice"}, {"measurement": "Y-maze spontaneous alternation", "setting": "[5]; TgAD mice, 25 mg/kg I.P. for 45 days, compared to TgAD", "value": "improvement of spontaneous alternation"}, {"measurement": "Y-maze total number of arm entries", "setting": "[5]; all groups, 25 mg/kg I.P. for 45 days (FIG. 7C)", "value": "no significant changes"}, {"measurement": "Radial arm maze reference memory errors (long term memory)", "setting": "[6]; 25 mg/kg I.P. for 45 days (FIG. 8B)", "value": "significant improvement"}, {"measurement": "Radial arm maze working memory errors (short term memory)", "setting": "[6]; 25 mg/kg I.P. for 45 days (FIG. 8C)", "value": "significant improvement"}, {"measurement": "food intake", "setting": "[7]; [8]", "value": "No significant differences"}, {"measurement": "water intake", "setting": "[7]; [8]", "value": "No significant differences"}, {"measurement": "side effects of chronic treatment", "setting": "[7]; mice, 25 mg/kg I.P. for 45 days", "value": "no major side effects"}, {"measurement": "swimming speed", "setting": "[7]; wild-type mice, clomipramine vs saline (FIG. 6A), p>0.05", "value": "almost unchanged"}, {"measurement": "body weight", "setting": "[7]; wild-type mice, clomipramine vs saline (FIG. 6B), p>0.05", "value": "almost unchanged"}, {"measurement": "learning and memory abilities", "setting": "[7]; wild-type mice, clomipramine vs saline, p>0.05", "value": "almost unchanged"}, {"measurement": "TAp73 protein levels in cortex", "setting": "TgAD cortex; TgAD brains, 25 mg/kg I.P. 45 days, six animals per group (FIGS. 9A, 9B)", "value": "much higher"}, {"measurement": "PCNA in cortex (CRNA)", "setting": "TgAD cortex; [9]", "value": "decrease"}, {"measurement": "cleaved caspase 3 in cortex (CRNA)", "setting": "TgAD cortex; [9]", "value": "decrease"}]}
